Data published in patent US20240294550A1, “8-OXA-3-AZABICYCLO[3.2.1]OCTANE COMPOUNDS OR SALT THEREOF, AND PREPARATION METHOD AND USE THEREOF” (LITTDD MEDICINES LTD, priority 2021, published 2024).
Like-named read-outs stand apart in the source and are kept apart here.

Experiments:
[1] = Pharmacokinetic (PK) assay in mice; format: in vivo; details: CD-1 mice; for AUC(0-t): read-out: AUC0-24 h
Description: The PK of each compound was determined as follows: 6 CD-1 mice (obtained from Shanghai Lingchang Biotechnology Co., Ltd.) were divided into two groups, 3 mice in each group. […] Blood samples were collected from saphenous vein of lower leg in each group at 0, 0.083, 0.25, 0.5, 1, 2, 4, 6, 8 and 24 h after administration. Approximately 40 μL of the blood samples were collected in anticoagulant tubes containing EDTA-K2. Immediately after collection, the tubes were inverted at least 5 times to ensure adequate mixing, and then placed on ice. The blood samples collected at each time point were centrifuged at 4° C., 8000 rpm for 5 minutes to obtain plasma. Another 1.5 mL centrifuge tube was marked with the compound name, animal number, and time point, and the plasma was transferred to this tube. The plasma was stored at −80° C. until analysis.
Compound concentrations in plasma were determined by UPLC-MS/MS method, and the pharmacokinetic parameters were calculated by Phoenix WinNolin 6.4 pharmacokinetic software on the obtained data.

[2] = Metabolic stability in human liver microsomes; format: in vitro ADME
Description: Drug-like Properties: Concepts, Structure Design and Methods: from ADME to Toxicity Optimization. […] Screen. […] After incubation for appropriate time (such as 5, 10, 20, 30 and 60 minutes), samples were collected, and an appropriate termination solution (glacial acetonitrile containing 200 ng/mL tolbutamide and 200 ng/mL labetalol (i.e. acetonitrile at 4° C.)) was added to stop the reaction. Sample treatment (n=1): each appropriate sample was added, vortexed and centrifuged at high speed. The supernatants were collected, and detected the substrate by HPLC-MS/MS. The peak area at the 0 min was set as 100%. The peak areas at other time points were converted to percentages of the remaining amount. The natural logarithms of the percentage of remaining amount at each time point was plotted against the incubation time, and the slope (−k) was calculated. Then, Clint (μL/min/mg) and half-life (T½, min) of the compounds were calculated following the equation: Inherent clearance rate (Clint)=(k*Volume of incubation solution)/Mass of liver microsomes.

C[C@@H]1COCCN1c1cc(N2CC3CCC(C2)O3)nc2c(-c3cc[nH]n3)cnn12 [Example 1, 3-(7-((R)-3-methylmorpholino)-3-(1H-pyrazol-3-yl)pyrazolo[1,5-a]pyrimidin-5-yl)-8-oxa-3-azabicyclo[3.2.1]octane]
CL_obs ([1]; IV dose 1 mg/kg): 18.3 mL/min/kg
half-life ([1]; mouse, plasma, IV dose 1 mg/kg): 90.6 min
Vd ([1]; mouse, plasma, IV dose 1 mg/kg, read-out: Vss): 1.68 L/kg
half-life ([1]; mouse, plasma, Po dose 5 mg/kg): 154 min
bioavailability ([1]; mouse, plasma, Po dose 5 mg/kg vs IV dose 1 mg/kg): 75.6%
C0 ([1]; mouse, IV dose 1 mg/kg, plasma): 823 ng/mL
AUC(0-t) ([1]; mouse, IV dose 1 mg/kg, plasma): 925 ng·h/mL
Cmax ([1]; mouse, Po dose 5 mg/kg, plasma): 1080 ng/mL
AUC(0-t) ([1]; mouse, Po dose 5 mg/kg, plasma): 3440 ng·h/mL
half-life at 1 μM ([2]; 1 μM compound): 118 min
Remain % (T = 60 min) ([2]; T = 60 min): 65.0%
microsomal CLint at 1 μM ([2]; read-out: CLint(mic)): 11.7 µL/min/mg
